In patent US20090137577A1, “HETEROCYCLIC COMPOUNDS” (Pfizer Inc., priority 2007, published 2009) one finds EC50 data, which are given here for 41 molecules.

Some results are limits rather than exact numbers.

T1 sequence (Q14416 19-872, species assumed): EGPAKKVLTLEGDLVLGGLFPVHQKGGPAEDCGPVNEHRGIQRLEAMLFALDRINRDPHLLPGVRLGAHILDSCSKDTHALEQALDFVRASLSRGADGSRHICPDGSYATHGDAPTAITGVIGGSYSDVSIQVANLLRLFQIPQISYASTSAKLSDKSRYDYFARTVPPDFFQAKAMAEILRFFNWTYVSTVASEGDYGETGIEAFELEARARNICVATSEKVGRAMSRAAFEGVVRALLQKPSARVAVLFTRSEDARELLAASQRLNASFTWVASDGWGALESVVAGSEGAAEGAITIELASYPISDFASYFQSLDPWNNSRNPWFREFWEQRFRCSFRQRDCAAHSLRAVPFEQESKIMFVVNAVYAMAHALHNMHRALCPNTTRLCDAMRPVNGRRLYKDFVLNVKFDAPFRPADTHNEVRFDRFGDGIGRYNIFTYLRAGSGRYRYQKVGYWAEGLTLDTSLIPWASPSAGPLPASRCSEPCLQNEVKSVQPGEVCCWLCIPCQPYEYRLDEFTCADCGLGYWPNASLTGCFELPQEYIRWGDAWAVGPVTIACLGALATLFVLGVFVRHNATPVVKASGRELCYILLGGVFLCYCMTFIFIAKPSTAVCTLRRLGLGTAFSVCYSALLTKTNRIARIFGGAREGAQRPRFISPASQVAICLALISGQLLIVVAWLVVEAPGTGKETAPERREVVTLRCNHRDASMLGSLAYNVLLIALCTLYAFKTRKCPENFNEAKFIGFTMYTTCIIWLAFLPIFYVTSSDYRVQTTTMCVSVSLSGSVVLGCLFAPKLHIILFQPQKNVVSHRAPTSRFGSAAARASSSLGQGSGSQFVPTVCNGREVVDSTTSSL

The assay concerns the target T1, mGluR2 receptor (metabotropic glutamate receptor 2) (Homo sapiens, UniProt Q14416).
T1 construct: expressed in transfected cells
The assay can be described thus: mGluR2 potentiator screen (FLIPR, EC10-EC20 glutamate challenge).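 Also: HEK cells stably expressing human mGluR2 with GL15 G protein, Fluo-4 calcium fluorescence read on FLIPR, compounds added before an EC10-EC20 glutamate challenge to detect potentiation.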 It counts as cell-based. As to conditions: geometric mean; read-out: mGluR 2 EC50 (geometric mean).
On to `COc1ccc(F)c(COc2ccc(CN3CC(C)OC3=O)cc2)c1` (centres unmarked) [Example 151], for which the EC50 is 0.0921 µM.
For `COc1c(-c2ccc(F)cc2)ccc(CN2C[C@@H](C)OC2=O)c1F` [Example 253] the value was 0.135 µM; for `O=C1OC(c2ccccc2)CN1Cc1ccc(OCC2CCCCC2)cc1` (centres unmarked) [Example 7], 0.22 µM.
The same measure for `CCC(C)CCOc1ccc(CN2C[C@@H](C)OC2=O)cc1` (some centres unmarked) [Example 212]: 0.0778 µM.
With `CC1CN(Cc2ccc(OCc3c(F)cccc3F)cc2)C(=O)O1` (centres unmarked) [Example 106], the EC50 was 0.0737 µM.
As for `C[C@@H]1CN(Cc2ccc(OCCC3CCCCC3)c(F)c2)C(=O)O1` [Example 241, (5R)-3-[4-(2-cyclohexylethoxy)-3-fluorobenzyl]-5-methyl-1,3-oxazolidin-2-one], the EC50 was found to be 0.418 µM.
For the molecule `CC1CN(Cc2ccc(OC(C)Cc3ccccc3)cc2)C(=O)O1` (centres unmarked) [Example 122], the EC50 turned out to be 0.0407 µM.
For `COc1ccc(C(C)C)cc1-c1ccc(CN2C[C@@H](C)OC2=O)cn1` [Example 282] the value was 1.47 µM.
`Cc1ccc(-c2ccc(CN3C[C@@H](C)OC3=O)cn2)c(F)c1` [Example 257]: the EC50 is 0.429 µM.
As to `CC1CN(Cc2ccc(OCCCc3ccncc3)cc2)C(=O)O1` (centres unmarked) [Example 116], the EC50 was found to be 0.934 µM.
For `Cc1c(COc2ccc(CN3CC(C)OC3=O)cc2)cnn1-c1ccccc1` (centres unmarked) [Example 128], the EC50 came to 0.595 µM.
As to `C[C@@H]1CN(Cc2ccc(-c3ccc(F)cc3Cl)cc2)C(=O)O1` [Example 274], the EC50 came to 0.0313 µM.
The same measure for `CC(C)COc1ccc(CN2C(=O)O[C@H](c3ccccc3)[C@@H]2C)cc1` [Example 26]: 0.542 µM; for `C[C@H](Oc1ccc(CN2C[C@H](C)OC2=O)cc1)c1ccccc1` [Example 70]: 0.209 µM; for `COc1cccc(COc2ccc(CN3CC(C)OC3=O)cc2)c1` (centres unmarked) [Example 103]: 0.221 µM.
The same measure for `C[C@@H]1CN(Cc2ccc(-c3ccc(OC(F)F)cc3)nc2)C(=O)O1` [Example 313]: 0.531 µM; for `CC(Oc1ccc(CN2CCOC2=O)cc1)C1CCCCC1` (centres unmarked) [Example 42]: 0.677 µM.
The same measure for `CCOc1ccc(COc2ccc(CN3CC(C)OC3=O)cc2)cc1` (centres unmarked) [Example 119]: 0.164 µM; for `Cc1ccc(C)n1-c1ccc(CN2C[C@@H](C)OC2=O)cc1` [Example 178, (5R)-3-[4-(2,5-dimethyl-1H-pyrrol-1-yl)benzyl]-5-methyl-1,3-oxazolidin-2-one]: 0.523 µM; for `C[C@H]1[C@@H](c2ccccc2)OC(=O)N1Cc1ccc(OCC2CCCCC2)cc1` [Example 27]: 1.14 µM.
With `C[C@@H]1CN(Cc2ccc(-c3cnc4ccccc4c3)c(F)c2)C(=O)O1` [Example 294], the EC50 was determined as 0.327 µM.
The same measure for `Cc1ccc(F)cc1-c1ccc(CN2C[C@@H](C)OC2=O)cc1` [Example 248]: 0.0537 µM; for `C[C@@H]1CN(Cc2ccc(-c3ccc(F)cc3F)cc2F)C(=O)O1` [Example 249, (5R)-5-methyl-3-[(2′,3,4′-trifluorobiphenyl-4-yl)methyl]-1,3-oxazolidin-2-one]: less than 0.0284 µM; for `C[C@@H]1CN(Cc2ccc(-c3ccc(C(F)(F)F)cc3F)cc2)C(=O)O1` [Example 234]: less than 0.0345 µM.
For `C[C@@H]1CN(Cc2ccc(-c3ccc(Cl)cc3F)nc2)C(=O)O1` [Example 210, (5R)-3-{[6-(4-Chloro-2-fluorophenyl)pyridin-3-yl]methyl}-5-methyl-1,3-oxazolidin-2-one] the value was 0.424 µM; for `CC(C)Oc1ccc(CN2CC(c3ccccc3)OC2=O)cc1` (centres unmarked) [Example 44], 0.572 µM; for `CC1CN(Cc2ccc(OCc3ccccc3F)cc2)C(=O)O1` (centres unmarked) [Example 112], 0.138 µM.
Turning to `Cc1ccc(F)cc1COc1ccc(CN2CC(C)OC2=O)cc1` (centres unmarked) [Example 142], the EC50 came out at 0.0435 µM.
For `COc1ccc(-c2ccc(CN3C[C@@H](C)OC3=O)cc2)cc1F` [Example 170] the value was 0.0342 µM.
For `C[C@@H]1CN(Cc2ccc(OCC3CCCCC3)c(Cl)c2)C(=O)O1` [Example 286, (5R)-3-[3-chloro-4-(cyclohexylmethoxy)benzyl]-5-methyl-1,3-oxazolidin-2-one] the value was 0.0325 µM; for `C[C@@H]1CN(Cc2ccc(-c3cccc(C#N)c3)cc2)C(=O)O1` [Example 85], 0.498 µM; for `CC1(C)COC(=O)N(Cc2ccc(OCc3ccccc3)cc2)C1` [Example 21], 0.819 µM.
As for `CCC(CC)Oc1ccc(CN2CC(C)OC2=O)cc1` (centres unmarked) [Example 136], the EC50 was determined as 0.774 µM.
For `C[C@@H]1CN(Cc2ccc(CN3CCc4ccccc43)cc2)C(=O)O1` [Example 301, (5R)-3-[4-(2,3-Dihydro-1H-indol-1-ylmethyl)benzyl]-5-methyl-1,3-oxazolidin-2-one] the value was 0.389 µM; for `CC(Oc1ccc(CN2CC(c3ccncc3)OC2=O)cc1)C1CCCCC1` (centres unmarked) [Example 209], 0.639 µM.
In the case of `CC1CN(Cc2ccc(OCc3ccc(F)c(F)c3)cc2)C(=O)O1` (centres unmarked) [Example 137], the EC50 was 0.31 µM.
For `CC1CN(Cc2ccc(OCCOc3ccccc3)cc2)C(=O)O1` (centres unmarked) [Example 121] the value was 0.434 µM.
For `CC(C)Oc1ccc(-c2ccc(CN3C[C@@H](C)OC3=O)cc2)cc1F` [Example 277] the value was 0.0531 µM.
Consider `C[C@@H]1CN(Cc2ccc(-c3ccc(C(F)(F)F)cc3)cc2)C(=O)O1` [Example 64, (5R)-5-methyl-3-{[4′-(trifluoromethyl)biphenyl-4-yl]methyl}-1,3-oxazolidin-2-one], for which the EC50 was determined as 0.061 µM.
The same measure for `COc1cccc(F)c1-c1ccc(CN2C[C@@H](C)OC2=O)cc1` [Example 172]: 0.0314 µM.
The same measure for `C[C@@H]1CN(Cc2ccc(OCC3CCC(NC4CCC4)CC3)cc2)C(=O)O1` (stereo partly drawn) [Example 297, (5R)-3-(4-{[4-(Cyclobutylamino)cyclohexyl]methoxy}benzyl)-5-methyl-1,3-oxazolidin-2-one]: 1.99 µM.

The EC50 is the concentration at which the effect is half-maximal.
